Read-outs that look alike come from different tables or passages of the source.
How the values were obtained:
most plant species [1] = conditions: in vivo; cited from earlier work
most plant species [2] = conditions: Franz, 1985; cited from earlier work
[3] = system: glyphosate oxidoreductase; test: Glyphosate oxidoreductase activity in isolated chloroplasts from transgenic tobacco; type: biochemical, Nicotiana tabacum; conditions: substrate 50 mM; 30 minute assays; without ubiquinone; chloroplasts of plants #22844, 22854, 22886, 22887
[4] = system: glyphosate oxido-reductase from LBAA; test: Glyphosate oxidoreductase reaction with substrates; type: biochemical; conditions: oxidation to glycine and glyoxylate
Excerpt: The enzyme glyphosate oxidoreductase catalyzes the cleavage of the C-N bond of glyphosate yielding aminomethyl phosphonate (AMPA) and glyoxylate as the reaction products. Under aerobic conditions, oxygen is utilized as a cosubstrate for the reaction. Other electron carriers such as phenazine methosulfate and ubiquinone stimulate the reaction under aerobic conditions. In the absence of oxygen, these compounds act as electron acceptors.
The enzymatic reaction can be assayed by oxygen uptake using an oxygen electrode. […] This enzyme has a stoichiometry of two moles of glyphosate oxidized per mole of oxygen consumed and produces two moles each of AMPA and glyoxylate as reaction products.
In addition to glyphosate, glyphosate oxido-reductase from LBAA oxidizes iminodiacetic acid (IDA) to glycine and glyoxylate.

[5] = biological target: LBAA glyphosate oxidoreductase variant ARG 334 (His334 to Arg) (Ochrobactrum sp. G-1, UniProt D2KI28, H334R/S2A); test: Kinetic analysis of glyphosate oxidoreductase variant ARG 334 (site-directed mutagenesis); type: biochemical, bacterial isolate LBAA (Pseudomonas strain LBAA)
[6] = biological target: LBAA glyphosate oxidoreductase variant v.247 (v1v2v3: GLY84, ARG153, ARG334), SEQ ID NO:18 (Ochrobactrum sp. G-1, UniProt D2KI28, H334R/K153R/S2A/S84G); test: Kinetic analysis of glyphosate oxidoreductase variant v.247; type: biochemical, bacterial isolate LBAA (Pseudomonas strain LBAA); conditions: v.247
Protocol: The mutagenesis procedure used was that of Mn++-poisoned PCR and the template was a linearized glyphosate oxidoreductase gene plasmid containing the synthetic glyphosate oxidoreductase gene (SEQ ID NO:8). The oligonucleotide primers used were homologous to regions in the vector and flanking the glyphosate oxidoreductase gene. The PCR conditions employed were as follows: 1 minute at 94° C., 2 minutes at 55° C., and 3 minutes at 72° C. and with 35 cycles. A 5:1 ratio of dCTP+dGTP+TTP to dATP was used. The reactions contained MnCl2 at 125, 250, 375, or 500 μM. After the reaction, the amplified product was recloned into a vector containing a weak E. coli promoter. This vector was a pBR327 derivative containing the araBAD promoter and suitable cloning sites. One hundred colonies from this cloning step were then screened in E. coli GB993 for improved glyphosate tolerance and utilization phenotypes in media composed of MOPS minimal medium with glyphosate and Pi or with glyphosate alone, respectively. Growth rates were determined by measuring A550 over a 96 hour period. […] The glyphosate oxidoreductase gene was recloned into the expression vector portion and this phenotype verified. All kinetic analysis was performed on crude E. coli lysates. Putative glyphosate oxidoreductase variant proteins were overexpressed after subcloning the NcoI/HindIII variant glyphosate oxidoreductase gene into PrecA-gene10L expression vector. For overexpression in PrecA-gene10L constructs, GB993 cells containing the vector were induced at a Klett=110-120 in M9 minimal medium with 50 μg/ml nalidixic acid and allowed to grow for 2.5 hours at 37° C. with vigorous shaking. Cells were harvested by centrifugation at 4000 g, 5 minutes at 4° C., and resuspend in 100 mM Tris-HCl, pH 7.1, 1 mM EDTA, 35 mM KCl, 20% glycerol, and 1 mM benzamidine at 3 ml/g cell pellet. Lysates were prepared by breaking the cells in a French press, twice, at 1000 psi. Insoluble debris was removed by centrifugation at 12000 g, 15 minutes at 4° C., and the supernatant was de-salted by passing over a PD-10 column (Sephadex G-25, Pharmacia). The void volume fraction was used as the source of enzyme for kinetic analysis. Protein concentrations were determined using the Bio-Rad protein dye-binding assay. Time and enzyme concentration courses were performed to determine linear ranges. […] Ten minutes was determined to be the optimal time for the enzyme assay using 10 μg lysate. After 10 minutes at 30° C. with shaking, 0.25 ml dinitrophenylhydrazine (DNPH) reagent (0.5 mg/ml in 0.5M HCl) was added and the reaction was allowed to proceed for an additional 5 minutes at 30° C. with shaking. A 1.5M NaOH solution (400 μl) was then added to the assay mix, and the reaction was continued for 5 minutes at 30° C. with shaking. Enzyme activity was determined from the amount of glyoxylate-DNPH adduct formed by measuring A520 against a standard of glyoxylate. Enzyme assays are performed in duplicate on at least two different single colony isolates of a putative glyphosate oxidoreductase variant. To determine Km and Vmax, enzyme assays were performed over a (0.2-2.0)×Km range of glyphosate concentrations. The Km and Vmax were determined from Lineweaver Burk, Eadie-Hofstee and hyperbolic kinetic plots. Vmax was estimated after determining the amount of immunoreactive glyphosate oxidoreductase protein in lysates by immunoblot analysis as described below. Immunoblot analysis was performed following SDS-PAGE and transfer of protein from the gel to nitrocellulose at 500 mA in a Hoeffer transfer apparatus in 25 mM Tris-HCl, 192 mM glycine containing 0.1% SDS and 25% methanol for 1-2 hours. After transfer, the nitrocellulose was incubated with 50 mM Tris-HCl, pH7.5, 0.9% NaCl, 0.01% Tween 20, 0.02% NaN3 containing 2% bovine serum albumin at room temperature with shaking for at least 30 minutes. […]

[7] = Kinetic analysis of glyphosate oxidoreductase variants in crude E. coli lysates (glyoxylate-DNPH assay), substrate glyphosate; type: biochemical; conditions: 25 mM glyphosate
Excerpt: Using this PCR approach, glyphosate oxidoreductase genes from a number of sources have been isolated. The presence of the glyphosate oxidoreductase activity was confirmed by cloning the glyphosate oxidoreductase gene from chromosomal DNA prepared from Pseudomonas sp. strain LBr (Jacob et al., 1988) and using primers homologous to the N- and C-termini of the LBAA glyphosate oxidoreductase gene and containing the following suitable restriction cloning sites: 5′-[…]-3′ (SEQ ID NO:13) and 5′-[…]-3′ (SEQ ID NO:14). Cyclotherm parameters used for these PCR reactions is as follows: • Denature at 94° C. for 1 minute; • Anneal at 60° C. for 2 minutes; • Polymerize at 72° C. for 3 minutes, • 30 cycles, no autoextension, linked to 4° C. incubation. […]
A population of bacteria was isolated from a fixed-bed immobilized cell column, which employed Mannville R-635 diatomaceous earth beads, by plating on Tryptone Soy Agar (Difco), containing cylcoheximide at 100 ug/ml, and incubating at 28° C. […] The glyphosate oxidoreductase activity was assayed and the Km for glyphosate also determined:
The mutagenesis procedure used was that of Mn++-poisoned PCR and the template was a linearized glyphosate oxidoreductase gene plasmid containing the synthetic glyphosate oxidoreductase gene (SEQ ID NO:8). […] Growth rates were determined by measuring A550 over a 96 hour period. […]

In the case of NCP(=O)(O)O [AMPA, aminomethylphosphonate], the phytotoxicity (most plant species [1]) is listed as “much less phytotoxic than glyphosate” and the phytotoxicity (most plant species [2]) is listed as “much less phytotoxic than glyphosate”.

For O=C(O)CNCP(=O)(O)O [Glyphosate, N-phosphonomethyl-glycine], the “Specific Activity” value [3] was 92 nmol/min/mg.

In the case of O=C(O)CNCC(=O)O [Iminodiacetic acid, iminodiacetic acid], the “Specific Activity” value [3] is reported as 179 nmol/min/mg and the “rate of the reaction” value [4] is reported as “significantly faster than with glyphosate”.

With O=C(O)CNCC(=O)O [IDA, iminodiacetic acid] the “VmKm (IDA)” value [5] was 1.2, the “app Vm (IDA)” value [5] was 0.6 U/mg and the Km ([5]; read-out: spp Km (IDA)) was 500 µM. The Km ([6]; read-out: spp Km (IDA), pH 7.4, 30° C., crude E. coli lysate) was 700 µM, the “VmKm (IDA)” value [6] was 1.0 and the “app Vm (IDA)” value ([6]; pH 7.4, 30° C.) was 0.7 U/mg.

B1: v.247: glyphosate oxidoreductase variant (SEQ ID NO:18); GLY84, ARG153, ARG334 (protein)
chain: MAENHKKVGIAGAGIVGVCTALMLQRRGFKVTLIDPNPPGEGASFGNAGCFNGSSVVPMSMPGNLTSVPKWLLDPMGPLSIRFGYFPTIMPWLIRFLLAGRPNKVKEQAKALRNLIKSTVPLIKSLAEEADASHLIRHEGHLTVYRGEADFARDRGGWELRRLNGVRTQILSADALRDFDPNLSHAFTKGILIEENGHTINPQGLVTLLFRRFIANGGEFVSARVIGFETEGRALKGITTTNGVLAVDAAVVAAGAHSKSLANSLGDDIPLDTERGYHIVIANPEAAPRIPTTDASGKFIATPMEMGLRVAGTVEFAGLTAAPNWKRAHVLYTRARKLLPALAPASSEERYSKWMGFRPSIPDSLPVIGRATRTPDVIYAFGHGHLGMTGAPMTATLVSELLAGEKTSIDISPFAPNRFGIGKSKQTGPAS
In the case of B1, the “fold higher specific activity for glyphosate oxidoreductase” value [7] is reported as 3-4 fold.

From patent USRE38825E1, “Glyphosate tolerant plants” (Monsanto Technology LLC, priority 1990, dated 2005)
